Results published in the supplement of paper PMC10307832.

What was measured:
Experiment in all cases: relative viability (nuclei count vs DMSO), 5 days (fraction); higher = more cells survive
Kobe2602 + Lapatinib = compound: C1=CC(=CC=C1NC(=S)NNC2=C(C=C(C=C2[N+](=O)[O-])C(F)(F)F)[N+](=O)[O-])F [Kobe2602] + CS(=O)(=O)CCNCc1ccc(-c2ccc3ncnc(Nc4ccc(OCc5cccc(F)c5)c(Cl)c4)c3c2)o1 [Lapatinib] (partner 2 µM)
Summary of the method: (§1)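 Medians of duplicate plates are given as relative viability. That measure is the nuclei count in treated wells divided by the count in vehicle wells. Counts were taken on 4× images of lung cancer cell lines in 1536-well plates, 5 days after pin-tool dosing the day after seeding with one drug alone or a fixed anchor-drug dose plus five library-drug doses (not always all listed) in √10 steps.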

Kobe2602 + Pictilisib = compound: C1=CC(=CC=C1NC(=S)NNC2=C(C=C(C=C2[N+](=O)[O-])C(F)(F)F)[N+](=O)[O-])F [Kobe2602] + CS(=O)(=O)N1CCN(Cc2cc3nc(-c4cccc5[nH]ncc45)nc(N4CCOCC4)c3s2)CC1 [Pictilisib] (partner 1 µM)
Summary of the method: as §1

[1] = compound: COc1cc2nccc(Oc3ccc(NC(=O)C4(C(=O)Nc5ccc(F)cc5)CC4)cc3)c2cc1OC [Cabozantinib] + CC(=O)Nc1cccc(-n2c(=O)n(C3CC3)c(=O)c3c(Nc4ccc(I)cc4F)n(C)c(=O)c(C)c32)c1 [Trametinib] (partner 0.02 µM)
Summary of the method: as §1

Kobe2602 + Dasatinib = compound: C1=CC(=CC=C1NC(=S)NNC2=C(C=C(C=C2[N+](=O)[O-])C(F)(F)F)[N+](=O)[O-])F [Kobe2602] + Cc1nc(Nc2ncc(C(=O)Nc3c(C)cccc3Cl)s2)cc(N2CCN(CCO)CC2)n1 [Dasatinib] (partner 0.075 µM)
Summary of the method: as §1

In the case of UMC-11, the relative viability (Kobe2602 + Lapatinib; first compound 0.2 µM) is reported as 0.696, the relative viability (Kobe2602 + Lapatinib; first compound 0.6325 µM) is reported as 1 and the relative viability (Kobe2602 + Lapatinib; first compound 2 µM) is reported as 0.958. For the same cell line, the relative viability (Kobe2602 + Lapatinib; first compound 6.325 µM) was 1.07, the relative viability (Kobe2602 + Lapatinib; first compound 20 µM) was 1.12 and the relative viability (Kobe2602 + Pictilisib; first compound 0.2 µM) was 0.865. For the same cell line, the relative viability (Kobe2602 + Pictilisib; first compound 0.6325 µM) was 0.863, the relative viability (Kobe2602 + Pictilisib; first compound 2 µM) was 0.847 and the relative viability (Kobe2602 + Pictilisib; first compound 6.325 µM) was 0.778. It also gave a relative viability (Kobe2602 + Pictilisib; first compound 20 µM) of 0.868, a relative viability ([1]; first compound 0.02 µM) of 0.666 and a relative viability ([1]; first compound 0.06325 µM) of 0.808. For the same cell line, the relative viability ([1]; first compound 0.2 µM) was 0.782, the relative viability ([1]; first compound 0.6325 µM) was 0.548 and the relative viability ([1]; first compound 2 µM) was 0.69. For the same cell line, the relative viability (Kobe2602 + Dasatinib; first compound 0.2 µM) was 0.49, the relative viability (Kobe2602 + Dasatinib; first compound 0.6325 µM) was 0.449 and the relative viability (Kobe2602 + Dasatinib; first compound 2 µM) was 0.449. It also gave a relative viability (Kobe2602 + Dasatinib; first compound 6.325 µM) of 0.451 and a relative viability (Kobe2602 + Dasatinib; first compound 20 µM) of 0.452.
